In patent US6737383B1, “Herbicidal oxadiazolidines” (priority 1999, dated 2004):

Key:
[1] = tested on: sugar beet; experiment: Test B pre/postemergence sugar beet; assay type: in vivo, Beta vulgaris
In short: (§1)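 Test chemicals in a non-phytotoxic solvent mixture with surfactant were sprayed preemergence onto planted seeds and postemergence onto plants 2 to 18 cm tall (1- to 4-leaf stage). After twelve to sixteen days in a greenhouse, injury was visually rated against untreated controls from 0 (no effect) to 10 (complete control).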

[2] = tested on: surinam grass; experiment: Test B pre/postemergence surinam grass; assay type: in vivo, Brachiaria decumbens
In short: as §1

[3] = tested on: wild oat; experiment: Test B pre/postemergence wild oat; assay type: in vivo, Avena fatua
In short: as §1

[4] = tested on: pigweed; experiment: Test B pre/postemergence pigweed; assay type: in vivo, Amaranthus retroflexus
In short: as §1

[5] = tested on: soybean; experiment: Test B pre/postemergence soybean; assay type: in vivo, Glycine max
In short: as §1

[6] = tested on: purple nutsedge; experiment: Test B pre/postemergence purple nutsedge; assay type: in vivo, Cyperus rotundus
In short: as §1

[7] = tested on: rape; experiment: Test B pre/postemergence rape; assay type: in vivo, Brassica napus
In short: as §1

[8] = tested on: wheat; experiment: Test B pre/postemergence wheat; assay type: in vivo, Triticum aestivum
In short: as §1

[9] = tested on: blackgrass; experiment: Test B pre/postemergence blackgrass; assay type: in vivo, Alopecurus myosuroides
In short: as §1

[10] = tested on: crabgrass; experiment: Test B pre/postemergence crabgrass; assay type: in vivo, Digitaria sanguinalis
In short: as §1

[11] = tested on: cocklebur; experiment: Test B pre/postemergence cocklebur; assay type: in vivo, Xanthium strumarium
In short: as §1

[12] = tested on: corn; experiment: Test B pre/postemergence corn; assay type: in vivo, Zea mays
In short: as §1

[13] = tested on: velvetleaf; experiment: Test B pre/postemergence velvetleaf; assay type: in vivo, Abutilon theophrasti
In short: as §1

[14] = tested on: bedstraw; experiment: Test B pre/postemergence bedstraw; assay type: in vivo, Galium aparine
In short: as §1

[15] = tested on: giant foxtail; experiment: Test B pre/postemergence giant foxtail; assay type: in vivo, Setaria faberii
In short: as §1

[16] = tested on: morningglory; experiment: Test B pre/postemergence morningglory; assay type: in vivo, Ipomoea hederacea
In short: as §1

[17] = Postemergence, Rate 125 g/ha, scale of 0 to 10 where 0 is no effect and 10 is complete control
[18] = Preemergence, Rate 62 g/ha, scale 0 to 10 (0 no effect, 10 complete control)
[19] = Preemergence, Rate 125 g/ha, 0 is no effect, 10 is complete control
[20] = Preemergence, Rate 250 g/ha, scale 0 to 10, 0 is no effect, 10 is complete control
[21] = Preemergence, Rate 500 g/ha, scale 0 to 10 (0 no effect, 10 complete control)
[22] = Rate 62 g/ha, Postemergence, scale of 0 to 10 where 0 is no effect and 10 is complete control
[23] = Rate 250 g/ha, Postemergence, scale 0 to 10, 0 is no effect, 10 is complete control
[24] = Rate 500 g/ha, Postemergence, scale 0 to 10

CC(C)N(C(=O)n1oc(=O)n(C(C)c2ccccc2)c1=O)c1ccc(Cl)cc1 (centres unmarked) [Compound 133]
2: Sugarbeets plant response rating (0 to 10 scale) [1, 19] | Sugarbeets plant response rating [1, 24] | Plant response rating, B. signalgrass [2, 23] | B. signalgrass plant response rating ([2]; Rate 500 g/ha, Postemergence, scale of 0 to 10 where 0 is no effect and 10 is complete control) | Wild oats plant response rating (0 to 10 scale) [3, 19] | Wild oats plant response rating [3, 20] | Redroot pigweed plant response rating [4, 24] | Rape plant response rating [7, 21] | Wheat plant response rating [8, 24] | Blackgrass plant response rating [9, 17] | Plant response rating, Blackgrass [9, 23] | Crabgrass plant response rating [10, 17] | Cocklebur plant response rating [11, 17] | Cocklebur plant response rating [11, 21] | Cocklebur plant response rating [11, 22] | Plant response rating, Cocklebur [11, 23] | Velvetleaf plant response rating [13, 20] | Velvetleaf plant response rating [13, 21] | Plant response rating, Velvetleaf [13, 23] | Giant foxtail plant response rating [15, 17] | Morningglory plant response rating [16, 22]
10: Giant foxtail plant response rating [15, 21]
7: B. signalgrass plant response rating [2, 21] | Plant response rating, Bedstraw [14, 23] | Bedstraw plant response rating ([14]; Rate 500 g/ha, Postemergence, scale 0 to 10, 0 no effect, 10 complete control) | Giant foxtail plant response rating (0 to 10 scale) [15, 19]
5: Sugarbeets plant response rating [1, 21] | B. signalgrass plant response rating (0 to 10 scale) [2, 19] | B. signalgrass plant response rating [2, 20] | Blackgrass plant response rating [9, 21] | Crabgrass plant response rating [10, 20] | Crabgrass plant response rating [10, 21] | Velvetleaf plant response rating [13, 24]
8: Morningglory plant response rating [16, 24]
1: Soybean plant response rating [5, 22] | Crabgrass plant response rating [10, 18]
9: Giant foxtail plant response rating [15, 20]
0: Sugarbeets plant response rating [1, 17] | Sugarbeets plant response rating [1, 18] | Sugarbeets plant response rating [1, 22] | Plant response rating, Sugarbeets [1, 23] | B. signalgrass plant response rating [2, 17] | B. signalgrass plant response rating [2, 18] | B. signalgrass plant response rating [2, 22] | Wild oats plant response rating [3, 17] | Wild oats plant response rating [3, 18] | Wild oats plant response rating [3, 22] | Plant response rating, Wild oats [3, 23] | Wild oats plant response rating [3, 24] | Redroot pigweed plant response rating [4, 17] | Redroot pigweed plant response rating [4, 18] | Redroot pigweed plant response rating (0 to 10 scale) [4, 19] | Redroot pigweed plant response rating [4, 20] | Redroot pigweed plant response rating [4, 22] | Plant response rating, Redroot pigweed [4, 23] | Soybean plant response rating [5, 18] | Soybean plant response rating (0 to 10 scale) [5, 19] | Soybean plant response rating [5, 20] | Soybean plant response rating [5, 21] | Nutsedge plant response rating [6, 17] | Nutsedge plant response rating [6, 18] | Nutsedge plant response rating (0 to 10 scale) [6, 19] | Nutsedge plant response rating [6, 20] | Nutsedge plant response rating [6, 21] | Nutsedge plant response rating [6, 22] | Plant response rating, Nutsedge [6, 23] | Nutsedge plant response rating [6, 24] | Rape plant response rating [7, 17] | Rape plant response rating [7, 18] | Rape plant response rating (0 to 10 scale) [7, 19] | Rape plant response rating [7, 20] | Rape plant response rating [7, 22] | Plant response rating, Rape [7, 23] | Rape plant response rating [7, 24] | Wheat plant response rating [8, 17] | Wheat plant response rating [8, 18] | Wheat plant response rating (0 to 10 scale) [8, 19] | Wheat plant response rating [8, 20] | Wheat plant response rating [8, 21] | Wheat plant response rating [8, 22] | Plant response rating, Wheat [8, 23] | Blackgrass plant response rating [9, 22] | Crabgrass plant response rating [10, 22] | Cocklebur plant response rating [11, 18] | Cocklebur plant response rating (0 to 10 scale) [11, 19] | Cocklebur plant response rating [11, 20] | Corn plant response rating [12, 17] | Corn plant response rating [12, 18] | Corn plant response rating (0 to 10 scale) [12, 19] | Corn plant response rating [12, 20] | Corn plant response rating [12, 21] | Corn plant response rating [12, 22] | Plant response rating, Corn [12, 23] | Corn plant response rating [12, 24] | Velvetleaf plant response rating [13, 17] | Velvetleaf plant response rating [13, 18] | Velvetleaf plant response rating (0 to 10 scale) [13, 19] | Velvetleaf plant response rating [13, 22] | Bedstraw plant response rating [14, 18] | Bedstraw plant response rating (0 to 10 scale) [14, 19] | Bedstraw plant response rating [14, 20] | Bedstraw plant response rating [14, 21] | Bedstraw plant response rating [14, 22] | Giant foxtail plant response rating [15, 22] | Morningglory plant response rating [16, 18] | Morningglory plant response rating (0 to 10 scale) [16, 19] | Morningglory plant response rating [16, 20] | Morningglory plant response rating [16, 21]
4: Wild oats plant response rating [3, 21] | Blackgrass plant response rating [9, 24] | Plant response rating, Crabgrass [10, 23] | Crabgrass plant response rating [10, 24] | Bedstraw plant response rating [14, 17] | Giant foxtail plant response rating [15, 24] | Plant response rating, Morningglory [16, 23]
3: Sugarbeets plant response rating [1, 20] | Redroot pigweed plant response rating [4, 21] | Soybean plant response rating [5, 17] | Plant response rating, Soybean [5, 23] | Soybean plant response rating [5, 24] | Blackgrass plant response rating [9, 18] | Blackgrass plant response rating (0 to 10 scale) [9, 19] | Blackgrass plant response rating [9, 20] | Crabgrass plant response rating (0 to 10 scale) [10, 19] | Cocklebur plant response rating [11, 24] | Giant foxtail plant response rating [15, 18] | Plant response rating, Giant foxtail [15, 23] | Morningglory plant response rating [16, 17]
